Reference: US6083981A, “Sulfonamide substituted aspartic acid interleukin-1β converting enzyme inhibitors” (Warner-Lambert Company, priority 1999, dated 2000)

What was measured:
[1] = molecular target: T1, ICE (Homo sapiens, UniProt P29466); assay: ICE Colorimetric Dose-Response (IC50) Assay; type: biochemical; details: 24 nM ICE, 60 min preincubation, 50 μM Ac-Tyr-Val-Ala-Asp-pNA, pH 7.5, 25° C
T1 sequence (P29466 120-297 limits assumed): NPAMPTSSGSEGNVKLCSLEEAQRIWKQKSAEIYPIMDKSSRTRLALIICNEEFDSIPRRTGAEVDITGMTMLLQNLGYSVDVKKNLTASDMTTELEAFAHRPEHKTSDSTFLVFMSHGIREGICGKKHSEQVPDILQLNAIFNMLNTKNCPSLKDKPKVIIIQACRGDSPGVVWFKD
T1 sequence (P29466 317-404 limits assumed): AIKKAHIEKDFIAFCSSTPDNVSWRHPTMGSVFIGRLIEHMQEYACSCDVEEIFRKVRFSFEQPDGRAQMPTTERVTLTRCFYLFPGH
Description: Aliquots of each dilution are transferred to a microtitre plate in triplicate.
(§1) ICE enzyme is diluted to approximately 24 nM in HGE buffer (100 mM Hepes pH 7.5, 0.5 mM EDTA, 20% glycerol, 0.1% Bovine Serum Albumin (BSA), and activated by adding dithiothreitol (DTT) to a final concentration of 5 mM. The activated enzyme is then aliquoted into wells containing inhibitor or vehicle, and the plate is preincubated for 60 minutes at ambient temperature. Substrate (Ac--Tyr--Val--Ala--Asp--pNA) is added to each well to a final concentration of 50 μM, and plates are placed in the microtitre plate-reader thermostated to 25° C. Beginning 5 minutes after addition of substrate, absorbance (405 nm) of wells is monitored for 1 hour, and activity is calculated as the mean rate of change in absorbance during this interval.

[2] = molecular target: T1, ICE; assay: ICE inhibition, fluorometric Ki (Ac-Tyr-Val-Ala-Asp-AMC substrate); type: biochemical; details: 0.24 nM ICE, 15 μM Ac-Tyr-Val-Ala-Asp-AMC, reversible competitive model
Description: Substrate hydrolysis is monitored for 300 seconds by observing the fluorescence of released AMC using excitation at 380 nm and emission at 460 nm. Mean rates of substrate hydrolysis are evaluated by linear-regression analysis of the fluorescence vs time traces.

[3] = molecular target: T2, Ich-2 (Caspase-4) (Homo sapiens, UniProt P49662); assay: Ich-2 (Caspase-4) Colorimetric Dose-Response (IC50) Assay; type: biochemical; details: 64 nM enzyme, 60 μM Ac-Leu-Glu-Val-Asp-pNA
T2 sequence (P49662 81-270 limits assumed): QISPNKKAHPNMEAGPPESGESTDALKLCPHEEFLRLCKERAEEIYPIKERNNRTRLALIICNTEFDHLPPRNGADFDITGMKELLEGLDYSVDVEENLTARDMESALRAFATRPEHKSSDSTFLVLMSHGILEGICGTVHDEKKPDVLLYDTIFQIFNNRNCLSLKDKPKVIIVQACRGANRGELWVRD
T2 sequence (P49662 290-377 limits assumed): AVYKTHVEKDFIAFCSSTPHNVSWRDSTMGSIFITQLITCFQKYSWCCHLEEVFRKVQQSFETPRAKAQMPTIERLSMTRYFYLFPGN
Description: as §1
Inhibition of Ich-2 enzyme is assayed as described above for ICE, except that enzyme is used at 64 nM, and 60 μM of the Ich-2-specific substrate Ac--Leu--Glu--Val--Asp--pNA is used instead of the ICE substrate Ac--Tyr--Val--Ala--Asp--pNA.

[4] = system: IL-1β production in human peripheral blood mononuclear cells (PBMCs); assay: PBMC Cellular Assay, inhibition of LPS-stimulated IL-1β production; type: cell-based; details: PBMC; mature IL-1β by ELISA, 10 ng/mL LPS overnight, 2% human AB serum
From the text: (§2) Further evidence that compounds of Formula I, II, and III are inhibitors of ICE is provided by their ability to inhibit IL-1β production in human peripheral blood mononuclear cells (PBMCs) as described herein. PBMCs are isolated from heparinized blood by centrifugation over a ficoll cushion, then washed three times with phosphate-buffered saline. PBMCs are suspended in a medium containing RPMI 1640 with glutamine, penicillin, streptomycin, and 2% human AB serum, then plated at 10^6 cells per well in 96 well flat bottom plates. PBMCs are stimulated overnight with 10 ng/mL of lipopolysaccharide (LPS, E. Coli strain 0111:B4; Calbiochem) in the presence or absence of a compound of Formula I. Medium is harvested and the level of mature IL-1β was determined using an ELISA kit from R & D Systems. Compound inhibition is assessed by determining the concentration of agent which reduces IL-1β levels by 50%. Cells were cultured for an additional four hours in the presence of 3-(4,5-dimethylthiazol-2-yl)-2,5-diphenyltetrazolium bromide (MTT) to determine viability. Compound toxicity can, therefore, be assessed by determining the concentration of agent which kills 50% of the cells (IC50).

[5] = PBMC viability (MTT), compound toxicity; type: cell-based; details: human, MTT viability, additional four hours, concentration which kills 50% of the cells, read-out: PBMC TC50
From the text: as §2

Compound | IC50 [1] | Ki [2] | IC50 [3] | IC50 [4] | CC50 [5]
3-(2-Methylbutoxy-Benzenesulfonylamino)-4-Oxo-Butyric Acid [Example 30] | 37 µM | 4.2 µM | 221 µM | – | –
O=C[C@H](CC(=O)O)NS(=O)(=O)c1ccccc1-c1ccccc1 [Example 1, 3-(Biphenyl-2-Sulfoamino)-4-Oxo-Butyric Acid] | 20.3 µM | 1.6 µM | 88 µM | > 100 µM | > 100 µM
O=C[C@H](CC(=O)O)NS(=O)(=O)c1ccccc1 [Example 2, 3-Benzenesulfonylamino-4-Oxo-Butyric Acid] | 86.8 µM | 6.8 µM | 259 µM | > 100 µM | –
O=C[C@H](CC(=O)O)NS(=O)(=O)c1ccccc1Cc1ccccc1 [Example 3, 3-(2-Benzyl-Benzenesulfonylamino)-4-Oxo-Butyric Acid] | 37 µM | 3.7 µM | 70 µM | – | –
O=CC(CC(=O)O)NS(=O)(=O)c1ccccc1Oc1ccccc1 (stereo not shown) [Example 4, 4-Oxo-3-(2-Phenoxy-Benzenesulfonylamino)-Butyric Acid] | 24 µM | – | 52 µM | – | –
Cc1ccc(Oc2ccccc2S(=O)(=O)N[C@H](C=O)CC(=O)O)cc1 [Example 5, 4-Oxo-3-(2-p-Tolyloxy-Benzenesulfonylamino)-Butyric Acid] | 8.8 µM | – | 18 µM | 67.5 µM | > 100 µM
CC(C)c1ccc(Oc2ccccc2S(=O)(=O)NC(C=O)CC(=O)O)cc1 (stereo not shown) [Example 6, 3-[2-(4-Isopropyl-Phenoxy)-Benzenesulfonylamino]-4-Oxo-Butyric Acid] | 5.3 µM | 0.54 µM | 6.1 µM | 23.5 µM | > 100 µM
Cc1cccc(Oc2ccccc2S(=O)(=O)N[C@H](C=O)CC(=O)O)c1 [Example 7, 4-Oxo-3-(2-m-Tolyloxy-Benzenesulfonylamino)-Butyric Acid] | 10.8 µM | – | 33 µM | 67.5 µM | > 100 µM
CC(C)c1cccc(Oc2ccccc2S(=O)(=O)N[C@H](C=O)CC(=O)O)c1 [Example 8, 3-[2-(3-lsopropyl-Phenoxy)-Benzenesulfonylamino]-4-Oxo-Butyric Acid] | 3.7 µM | 0.41 µM | 6.1 µM | 45 µM | > 100 µM
Cc1ccc(-c2ccccc2S(=O)(=O)NC(C=O)CC(=O)O)cc1 (stereo not shown) [Example 9, 3-(4'-Methyl-Biphenyl-2-Sulfonylamino)-4-Oxo-Butyric Acid] | 66.2 µM | 6.4 µM | 109 µM | – | –
CC(C)COc1ccccc1S(=O)(=O)NC(C=O)CC(=O)O (stereo not shown) [Example 10, 3-(2-Isobutoxy-Benzenesulfonylamino)-4-Oxo-Butyric Acid] | 22 µM | 4.2 µM | 318 µM | 90 µM | > 100 µM
CCCC(C)C(=O)Nc1ccccc1S(=O)(=O)N[C@H](C=O)CC(=O)O (stereo partly shown) [Example 11, 3-[2-(2-Methyl-Pentanoylamino)-Benzenesulfonylamino]-4-Oxo-Butyric Acid] | 55 µM | 17 µM | 569 µM | – | –
Cc1ccccc1Oc1ccccc1S(=O)(=O)NC(C=O)CC(=O)O (stereo not shown) [Example 12, 4-Oxo-3-(2-o-Tolyloxy-Benzenesulfonylamino)-Butyric Acid] | 14 µM | 3 µM | 59 µM | 90 µM | > 100 µM
O=CC(CC(=O)O)NS(=O)(=O)c1ccccc1CCc1ccccc1 (stereo not shown) [Example 13, 4-Oxo-3-(2-Phenethyl-Benzenesulfonylamino)-Butyric Acid] | 32 µM | 7 µM | 167 µM | – | –
O=CC(CC(=O)O)NS(=O)(=O)c1ccccc1OC1CCCCC1 (stereo not shown) [Example 14, 3-(2-Cyclohexyloxy-Benzenesulfonylamino)-4-Oxo-Butyric Acid] | 20 µM | 2.3 µM | 35 µM | 90 µM | > 100 µM
O=CC(CC(=O)O)NS(=O)(=O)c1ccccc1Oc1ccc2ccccc2c1Cl (stereo not shown) [Example 15, 3-[2-(1-Chloro-Naphthalen-2-Yloxy)-Benzenesulfonylamino]-4-Oxo-Butyric Acid] | 5.1 µM | 1 µM | 22 µM | 50 µM | > 100 µM
O=CC(CC(=O)O)NS(=O)(=O)c1ccccc1Oc1ccc2c(c1)CCCC2 (stereo not shown) [Example 16, 4-Oxo-3-[2-(5,6,7,8-Tetrahydro-Naphthalen-2-Yloxy)-Benzenesulfonylamino]-Butyric Acid] | 5.8 µM | 1.3 µM | 42 µM | 65 µM | > 100 µM
O=CC(CC(=O)O)NS(=O)(=O)c1ccccc1OCCc1ccccc1 (stereo not shown) [Example 17, 4-Oxo-3-(2-Phenethyloxy-Benzenesulfonylamino)-Butyric Acid] | 9.2 µM | 0.9 µM | 63 µM | 55 µM | > 100 µM
Cc1cc(Oc2ccccc2S(=O)(=O)NC(C=O)CC(=O)O)ccc1C(C)C (stereo not shown) [Example 22, 3-[2-(4-Isopropyl-3-Methyl-Phenoxy)-Benzenesulfonylamino]-4-Oxo-Butyric Acid] | 1 µM | – | 76 µM | 25 µM | > 100 µM
CCC(CC)c1ccc(Oc2ccccc2S(=O)(=O)NC(C=O)CC(=O)O)cc1 (stereo not shown) [Example 25, 3-{2-[4-(1-Ethyl-Propyl)-Phenoxy]-Benzenesulfonylamino}-4-Oxo-Butyric Acid] | 3.5 µM | – | 6.5 µM | 27 µM | > 100 µM
Cc1cc(Oc2ccccc2S(=O)(=O)NC(C=O)CC(=O)O)cc(C)c1C (stereo not shown) [Example 26, 4-Oxo-3-[2-(3,4,5-Trimethyl-Phenoxy)-Benzenesulfonylamino]-Butyric Acid] | 7.8 µM | – | 23 µM | 58 µM | > 100 µM
Cc1ccccc1-c1ccccc1S(=O)(=O)NC(C=O)CC(=O)O (stereo not shown) [Example 32, 3-(2'-Methyl-Biphenyl-2-Sulfonylamino)-4-Oxo-Butyric Acid] | 28 µM | 7 µM | 603 µM | – | –
O=CC(CC(=O)O)NS(=O)(=O)c1ccccc1-c1cccc2ccccc12 (stereo not shown) [Example 33, 3-(2-Naphthalen-1-yl-Benzenesulfonylamino)-4-Oxo-Butyric Acid] | – | 7 µM | 77 µM | – | –
O=CC(CC(=O)O)NS(=O)(=O)c1cccc2ccccc12 (stereo not shown) [Example 34, 3-(Naphthalene-1-Sulfonylamino)-4-Oxo-Butyric Acid] | 110 µM | 31 µM | 602 µM | – | –
O=CC(CC(=O)O)NS(=O)(=O)c1ccccc1OCC1CCCO1 (stereo not shown) [Example 43, 4-Oxo-3-[2-(Tetrahydro-Furan-2-Ylmethoxy)-Benzenesulfonylamino]-Butyric Acid] | 99 µM | 7.7 µM | 1970 µM | – | –
O=CC(CC(=O)O)NS(=O)(=O)c1ccccc1[N+](=O)[O-] (stereo not shown) [Example 46, 3-(2-Nitro-Benzenesulfonylamino)-4-Oxo-Butyric Acid] | 130 µM | 10 µM | 525 µM | – | –
